Test results: patent US12459932B2, “KIF18A inhibitors” (AMGEN INC., priority 2018, dated 2025)

Molecular target: T1, Recombinant human KIF18A (1-467 His-tagged) (Homo sapiens, UniProt Q8NI77)
T1 construct: Recombinant human KIF18A (1-467 His-tagged) protein; His
Experiment: KIF18A Enzyme Assay: microtubule-stimulated ATPase activity (ADP-Glo)
Type: biochemical
Conditions: 30 nM KIF18A, 30 μg/mL pig microtubules, ATP 75 μM (Km), ADP-Glo luminescence
Experimental: KIF18A Enzyme Assay: Microtubule-stimulated ATPase activity assay is used to measure KIF18A enzyme activity after treatment with compound. Compounds were 2-fold serially diluted in DMSO (Sigma Inc) over 22-point concentration range. […] The assay measures ADP formed from the ATPase reaction. […] Read luminescence using EnVision microplate reader with ultra-luminescence module (Perkin Elmer Inc). Concentration-response curve-fitting and IC50 determination was performed using Genedata Screener Software (Standard 15.0.1, Genedata Inc) with a four-parameter logistic regression fit model.

T1 sequence (Q8NI77 1-467): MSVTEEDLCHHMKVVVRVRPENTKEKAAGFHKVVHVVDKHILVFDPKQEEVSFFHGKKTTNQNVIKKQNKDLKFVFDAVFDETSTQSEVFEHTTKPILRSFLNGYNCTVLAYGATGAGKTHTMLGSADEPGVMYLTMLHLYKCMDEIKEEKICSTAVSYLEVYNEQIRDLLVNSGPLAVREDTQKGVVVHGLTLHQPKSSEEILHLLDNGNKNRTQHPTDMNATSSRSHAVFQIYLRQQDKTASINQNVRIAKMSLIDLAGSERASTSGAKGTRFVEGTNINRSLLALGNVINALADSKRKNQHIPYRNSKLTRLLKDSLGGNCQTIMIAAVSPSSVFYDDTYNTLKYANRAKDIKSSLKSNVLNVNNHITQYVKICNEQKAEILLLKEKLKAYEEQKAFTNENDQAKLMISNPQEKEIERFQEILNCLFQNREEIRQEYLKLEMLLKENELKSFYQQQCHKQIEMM
T1 sequence (P02550 whole entry partner): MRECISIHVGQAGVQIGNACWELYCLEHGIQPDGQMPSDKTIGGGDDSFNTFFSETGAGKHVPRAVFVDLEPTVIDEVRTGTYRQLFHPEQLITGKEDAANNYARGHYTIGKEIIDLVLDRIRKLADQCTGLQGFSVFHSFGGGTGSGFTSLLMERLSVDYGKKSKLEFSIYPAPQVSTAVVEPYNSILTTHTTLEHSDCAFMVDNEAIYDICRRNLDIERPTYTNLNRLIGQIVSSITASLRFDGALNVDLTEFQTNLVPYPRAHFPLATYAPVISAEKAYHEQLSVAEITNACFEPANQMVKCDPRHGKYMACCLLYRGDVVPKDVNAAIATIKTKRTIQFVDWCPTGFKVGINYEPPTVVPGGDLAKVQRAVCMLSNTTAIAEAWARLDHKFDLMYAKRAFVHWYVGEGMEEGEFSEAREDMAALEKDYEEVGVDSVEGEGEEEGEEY
T1 sequence (P02554 whole entry partner): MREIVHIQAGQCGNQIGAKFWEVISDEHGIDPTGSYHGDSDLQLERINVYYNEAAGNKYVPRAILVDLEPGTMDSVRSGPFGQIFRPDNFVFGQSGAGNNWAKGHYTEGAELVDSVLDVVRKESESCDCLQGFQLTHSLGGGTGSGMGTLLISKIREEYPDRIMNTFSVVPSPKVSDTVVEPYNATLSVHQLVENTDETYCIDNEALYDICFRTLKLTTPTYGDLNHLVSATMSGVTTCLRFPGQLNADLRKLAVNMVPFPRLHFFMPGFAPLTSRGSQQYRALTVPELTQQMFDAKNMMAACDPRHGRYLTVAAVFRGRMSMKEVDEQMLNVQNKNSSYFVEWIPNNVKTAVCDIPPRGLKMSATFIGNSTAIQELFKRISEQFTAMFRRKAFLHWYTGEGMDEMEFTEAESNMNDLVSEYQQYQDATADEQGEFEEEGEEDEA

| Structure (SMILES) | IC50 |
| --- | --- |
| C[C@@H]1CN(c2cccc(NC(=O)c3ccc(NS(=O)(=O)C(F)(F)F)cc3N3CCC4(CC3)CC4)n2)CCO1 [Example 7-41, (R)-N-(6-(2-Methylmorpholino)pyridin-2-yl)-2-(6-azaspiro[2.5]octan-6-yl)-4-((trifluoromethyl)sulfonamido)benzamide] | 207 nM |
| Cc1cc(NC(=O)c2ccc(NS(=O)(=O)C(C)(C)C)cc2N2CCC3(CC2)CC3)nc(N2CCC(F)(F)CC2)c1 [Example 7-22, N-(6-(4,4-Difluoropiperidin-1-yl)-4-methylpyridin-2-yl)-4-((1,1-dimethylethyl)sulfonamido)-2-(6-azaspiro[2.5]octan-6-yl)benzamide] | 103 nM |
| CC1(F)CCN(c2cccc(NC(=O)c3ccc(NS(=O)(=O)C4(C)CC4)cc3N3CCC4(CC3)CC4)n2)CC1 [Example 3-13, N-(6-(4-Fluoro-4-methylpiperidin-1-yl)pyridin-2-yl)-4-((1-methylcyclopropane)-1-sulfonamido)-2-(6-azaspiro[2.5]octan-6-yl)benzamide] | 373 nM |
| C[C@@H]1CN(c2cccc(NC(=O)c3ccc(S(C)(=N)=O)cc3N3CCC4(CC3)CC4)n2)CCO1 (stereo in doubt) [Example 13-4, 2-(6-Azaspiro[2.5]octan-6-yl)-N-(6-((2R)-2-methyl-4-morpholinyl)-2-pyridinyl)-4-(R-methylsulfonimidoyl)benzamide] | 154 nM |
| CC1(S(=O)(=O)Nc2ccc(C(=O)Nc3cccc(N4CCC[C@@H](O)C4)n3)c(N3CCC4(CC3)CC4)c2)CC1 [Example 3, (R)-N-(6-(3-Hydroxypiperidin-1-yl)pyridin-2-yl)-4-((1-methylcyclopropane)-1-sulfonamido)-2-(6-azaspiro[2.5]octan-6-yl)benzamide] | 46 nM |
| C[C@@H]1CN(c2cccc(NC(=O)c3ccc(NS(=O)(=O)[C@@H](C)CO)cc3N3CCC4(CC3)CC4)n2)CCO1 (single isomer, unassigned) [Example 9-16] | 48 nM |
| C[C@H](CO)S(=O)(=O)Nc1ccc(C(=O)Nc2cccc(OCCC(F)(F)F)n2)c(N2CCC3(CC2)CC3)c1 (single isomer, unassigned) [Example 8-1] | 16 nM |
| N#Cc1ccc(NC(=O)c2ccc(NS(=O)(=O)CCO)cc2N2CCC3(CC2)CC3)nc1N1CCC(F)(F)CC1 [Example 21, N-(5-Cyano-6-(4,4-difluoropiperidin-1-yl)pyridin-2-yl)-4-((2-hydroxyethyl)sulfonamido)-2-(6-azaspiro[2.5]octan-6-yl)benzamide] | 25 nM |
| C[C@@H]1CN(c2cccc(NC(=O)c3ccc(NS(=O)(=O)C(C)(C)C)cc3N3CCC4(CC3)CC4)n2)CCO1 [Example 7-16, (R)-4-((1,1-Dimethylethyl)sulfonamido)-N-(6-(2-methylmorpholino)pyridin-2-yl)-2-(6-azaspiro[2.5]octan-6-yl)benzamide] | 67 nM |
| CC1(S(=O)(=O)Nc2ccc(C(=O)Nc3cccc(N4CCC[C@@H](CO)C4)n3)c(N3CCC4(CC3)CC4)c2)CC1 [Example 3-6, (R)-N-(6-(3-(Hydroxymethyl)piperidin-1-yl)pyridin-2-yl)-4-((1-methylcyclopropane)-1-sulfonamido)-2-(6-azaspiro[2.5]octan-6-yl)benzamide] | 86 nM |
| C[C@H](CO)S(=O)(=O)Nc1ccc(C(=O)Nc2cccc(N3CCC(F)(F)CC3)n2)c(N2CCC3(CC2)CC3)c1 (single isomer, unassigned) [Example 9-10] | 37 nM |
| C[C@@H]1CN(c2cccc(NC(=O)c3ccc([S@](=N)(=O)C(C)(C)C)cc3N3CCC4(CC3)CC4)n2)CCO1 (single isomer, unassigned) [Example 13-1] | 199 nM |
| C[C@@H]1CN(c2cccc(NC(=O)c3ccc(S(=O)(=O)NC(C)(C)CO)cc3N3CCC4(CC3)CC4)n2)CCO1 [Example 1-4, (R)-4-(N-(1-Hydroxy-2-methylpropan-2-yl)sulfamoyl)-N-(6-(2-methylmorpholino)pyridin-2-yl)-2-(6-azaspiro[2.5]octan-6-yl)benzamide] | 46 nM |
